Laboratory results: patent publication US12421222B2 (AUGUSTINE THERAPEUTICS, priority 2021, dated 2025)

Test system: acetylated tubulin (Lys40) in HeLa cells
Experiment: Acetylated α-tubulin measurement in vitro (immunocytochemistry)
Type: cell-based
Conditions: Homo sapiens, 6 hours incubation, acetylated tubulin (Lys40) by immunocytochemistry, read-out: IC50 (Tubulin deacetylation)
Procedure: HeLa cells were cultured in UltraCulture serum-free medium (Lonza) supplemented with 2 mM glutamine (Lonza). Assays were performed at 96-well or 384-well format, differences in assay protocols are detailed in Table 6. Cells per well were plated and incubated overnight at 37° C. overnight in a humidified atmosphere containing 5% CO2. Cell density and seeding volumes are detailed in Table 6. Compounds (dissolved in 100% DMSO) or DMSO (vehicle) were added manually by diluting them in culture medium at 10× final assay concentration and adding 10 μL to cells (96-well protocol). Alternatively, 50 nL compound was added directly to the cell culture using the Echo650 (Labcyte) (384-well protocol). In this assay, the final assay concentration of DMSO is 0.1%-0.4%. Trichostatin A (TSA) was used as a positive control. Cells were incubated with compounds at 37° C. in a humidified atmosphere containing 5% CO2 for 6 hours. Levels of acetylated tubulin (Lys40) were assessed by immunocytochemistry using target-specific antibodies. Cells were fixed with 4% PFA at RT as detailed in Table 6. After 2-3 wash steps with PBS, cells were permeabilized with 0.5% Triton in PBS at RT for 10 minutes followed by 1-2 washes with PBS. To avoid non-specific antibody staining, cells were blocked with 3% BSA in PBS at room temperature for 1 hour. […] Cells were washed 2-3 times with PBS and labelled for 1 h at RT with goat anti-mouse conjugated with Alexa 647 (Thermofisher) and goat anti-rabbit conjugated with Alexa 555 (Thermofisher) secondary antibodies, diluted in 1% BSA to a final concentration of 1:1000. Simultaneously, nuclei were stained with 1:10000-1:15000 Hoechst (Thermofisher). Incubation time and temperature of the primary antibodies are detailed in Table 6. Cells were washed 2-3 times with PBS and they were imaged with the Operetta CLS or Opera Phenix (PerkinElmer). Imaging is further detailed in Table 6. For imaging analysis, the Harmony analysis software (PerkinElmer) was used. Cytoplasmic (defined by total α-tubulin staining) intensities per well were used for α-tubulin (acetylated and total) quantification. Intensities were measured per cell and then averaged per well. Mean intensity levels of acetylated tubulin were normalized to the mean intensity levels of total tubulin. The changes in acetylated tubulin were normalized for each plate using GraphPad Prism software: tubulin acetylation in vehicle (DMSO)-treated cells were set to 0% while tubulin acetylation in TSA-treated cells were set to 100%. EC50 values were calculated using the log(inhibitor) vs. response—Variable slope (four parameters) nonlinear regression in GraphPad Prism software.

IC50	Compound
≤ 100 nM	Cc1nc(SCC(=O)c2ccc(CNC(=O)CO)s2)c2cc(N3CCCOCC3)ccc2n1 [Example 83, 2-hydroxy-N-((5-(2-((2-methyl-6-(1,4-oxazepan-4-yl)quinazolin-4-yl)thio)acetyl)thiophen-2-yl)methyl)acetamide]
≤ 100 nM	Cc1nc(SCC(=O)c2ccc(CNC(=O)CO)s2)c2cc(N3CCC(F)(F)C3)ccc2n1 [Example 84, N-((5-(2-((6-(3,3-difluoropyrrolidin-1-yl)-2-methylquinazolin-4-yl)thio)acetyl)thiophen-2-yl)methyl)-2-hydroxyacetamide]
≤ 100 nM	Cc1nc(SCC(=O)c2ccc(CNC(=O)CO)s2)c2cc(N3CCN(C)CC3)ccc2n1 [Example 85, 2-hydroxy-N-((5-(2-((2-methyl-6-(4-methylpiperazin-1-yl)quinazolin-4-yl)thio)acetyl)thiophen-2-yl)methyl)acetamide]
1000 to 3330 nM	Cn1ncc2c(SCC(=O)c3ccc(C4CCN(C(=O)CO)C4)s3)ncnc21 (centres unmarked) [Example 86, 2-hydroxy-1-(3-(5-(2-((1-methyl-1H-pyrazolo[3,4-d]pyrimidin-4-yl)thio)acetyl)thiophen-2-yl)157yrrolidine-1-yl)ethan-1-one]
1000 to 3330 nM	Cn1ncc2c(SCC(=O)c3ccc(CNS(C)(=O)=O)s3)ncnc21 [Example 87]
> 3330 nM	CN(Cc1ccc(C(=O)CSc2ncnc3c2cnn3C)s1)S(=O)(=O)C1CC1 [Example 91, N-methyl-N-((5-(2-((1-methyl-1H-pyrazolo[3,4-d]pyrimidin-4-yl)thio)acetyl)thiophen-2-yl)methyl)cyclopropanesulfonamide]
500 to 1000 nM	CS(=O)(=O)N1CCC(c2ccc(C(=O)CSc3nc(C(F)(F)F)nc4ccccc34)s2)C1 (centres unmarked) [Example 95, 1-(5-(1-(methylsulfonyl)161yrrolidine-3-yl)thiophen-2-yl)-2-((2-(trifluoromethyl)quinazolin-4-yl)thio)ethanone]
1000 to 3330 nM	Cc1nc(SCC(=O)c2ccc(CNS(C)(=O)=O)s2)c2ccccc2n1 [Example 97, N-((5-(2-((2-methylquinazolin-4-yl)thio)acetyl)thiophen-2-yl)methyl)methanesulfonamide]
1000 to 3330 nM	CS(=O)(=O)NCCc1ccc(C(=O)CSc2nc(C(F)(F)F)nc3ccccc23)s1 [Example 98, N-(2-(5-(2-((2-(trifluoromethyl)quinazolin-4-yl)thio)acetyl)thiophen-2-yl)ethyl)methanesulfonamide]
100 to 500 nM	Cc1nc(SCC(=O)c2ccc(CNC(=O)CO)s2)c2cc(C3CC3)ccc2n1 [Example 106, N-((5-(2-((6-cyclopropyl-2-methylquinazolin-4-yl)thio)acetyl)thiophen-2-yl)methyl)-2-hydroxyacetamide]
100 to 500 nM	Cc1cc2nc(C(F)(F)F)nc(SCC(=O)c3ccc(CNC(=O)CO)s3)n2n1 [Example 107, 2-hydroxy-N-((5-(2-((7-methyl-2-(trifluoromethyl)pyrazolo[1,5-a][1,3,5]triazin-4-yl)thio)acetyl)thiophen-2-yl)methyl)acetamide]
100 to 500 nM	COc1cc(F)c2nc(C)nc(SCC(=O)c3ccc(CNC(=O)CO)s3)c2c1 [Example 108, N-((5-(2-((8-fluoro-6-methoxy-2-methylquinazolin-4-yl)thio)acetyl)thiophen-2-yl)methyl)-2-hydroxyacetamide]
100 to 500 nM	COc1ccc2nc(C)nc(SCC(=O)c3ccc(CN(C)C(=O)CO)s3)c2c1 [Example 109, 2-hydroxy-N-((5-(2-((6-methoxy-2-methylquinazolin-4-yl)thio)acetyl)thiophen-2-yl)methyl)-N-methylacetamide]
≤ 100 nM	Cc1nc(SCC(=O)c2ccc(CNC(=O)C3CC3(F)F)s2)c2cccnc2n1 (centres unmarked) [Example 110, 2,2-difluoro-N-((5-(2-((2-methylpyrido[2,3-d]pyrimidin-4-yl)thio)acetyl)thiophen-2-yl)methyl)cyclopropane-1-carboxamide]
